SMILES strings stand for the structures. “Also recorded” adds a separate entry of the source. A value given as a limit tells only on which side of the number the result lay.

From patent publication US20250332176A1, “TREATMENT FOR FIBROSIS AND INHIBITION OF FIBROSIS” (GALMED RESEARCH AND DEVELOPMENT LTD, priority 2022, published 2025) come the findings set out here.

One data set concerns Wistar rats. In words: Thioacetamide (TAA)-induced fibrosis, model for hepatic cirrhosis. In kind it is in vivo. To be noted: 5 mg/kg, co-administered with TAA during 10 weeks. The method, then: Liver fibrosis was induced in Wistar rats by intraperitoneal injections of TAA (20 mg/100 gr body weight) twice per week during 10 weeks. I.p. application of TAA results in hepatic centrolobular necrosis, elevated transaminase activity and robust liver fibrosis. Treatment groups further included co-administration of Aramchol™ (1 or 5 mg/kg orally) or obaticholic acid (OCA, 5 mg/kg). A control group of saline-treated rats (in the absence of TAA administration) was further included. Rats were then sacrificed, and livers were observed macroscopically for signs of cirrhosis and necrotic lesions, and microscopically, following Masson Goldner staining. The fibrosis score, calculated at a scale of 0-4, was determined for each sample, wherein 0 indicates no fibrosis and 4 indicates advanced fibrosis and cirrhosis.

Data set [1] has as its system pts with pre-diabetes or diabetes and biopsy-proven NASH. In words: Global phase 2b randomized placebo-controlled ARREST trial, one-year results. In kind it is in vivo, human. Here is the method:
Overweight/obese pts with pre-diabetes or diabetes and biopsy-proven NASH (with NAS≥4; F<4) were included. Liver biopsy and liver fat measurement by MR spectroscopy (LF-MRS) were performed at baseline and week 52. Both read centrally. The primary endpoint was the absolute change from baseline in LF-MRS (600 mg vs. placebo, PLB; mixed model repeated measures). Key secondary endpoints included: NASH resolution without fibrosis worsening, ≥1 stage fibrosis reduction without NASH worsening and ALT reduction. 247 pts from 11 countries (US, Europe, Latin America) were randomized 2:2:1 to Aramchol™ 400 mg QD (N=101), 600 mg QD (N=98) or PLB (N=48). At baseline: 65% females, mean age 54.4 yrs, BMI 32.7 kg/m2, HbA1c 6.6%±1.0% (mean±SD), LF-MRS 28.5%±11.7% (mean±SD); 60% fibrosis stage 2-3 and NAS 5.12±1.00 (mean±SD). 89% of pts completed the study. The results of the study are summarized in FIGS. 16A-16B to FIGS.-20A-20B.

For the compound `CCCCCCCCCCCCCCCCCCCC(=O)N[C@H]1CC[C@@]2(C)[C@@H](C1)C[C@@H](O)[C@@H]1[C@@H]2C[C@H](O)[C@]2(C)[C@@H]([C@H](C)CCC(=O)O)CC[C@@H]12` [Aramchol™, 3β-arachidylamido-7α, 12α-dihydroxy-5β-cholan-24-oic acid], the TAA induced fibrosis entry in the data set on Wistar rats is on record as “significantly prevented”. For the same compound, in the data set on Wistar rats, the “development of necrosis and cirrhosis (macroscopic)” value is given as “reduced significantly; also recorded: significantly inhibited”. Further, in the data set with Wistar rats (score scale 0-4), the “fibrotic score and collagen distribution in the tissue (Masson Goldner staining)” value is listed as “reduced significantly”. The “pts progressed to cirrhosis” value in data set [1] (400 mg QD, week 52) is recorded as 7.5%; in data set [1] (600 mg QD, week 52), 1.3%. For the same compound, the “pts with ≥5% absolute reduction in liver fat” value worked out at 37% in data set [1] (400 mg QD, week 52) and 47% in data set [1] (600 mg QD, week 52, vs 24% on PLB (p<0.028)). The “liver fat by MR spectroscopy (LF-MRS), absolute change from baseline vs PLB” value was “significantly reduced” in data set [1] (400 mg QD, week 52, p=0.045) and “significantly reduced” in data set [1] (600 mg QD, week 52, p<0.066). Also, the “effect on ballooning (improvement ≥1 point; ballooning 0 at end of study)” value in data set [1] (600 mg) is given as “statistically significant effect”. Moreover, in data set [1] (600 mg QD, week 52, vs 5.0% PLB), the “pts with NASH resolution without fibrosis worsening” value came out at 16.7%. Further, in data set [1] (600 mg QD, week 52, vs 17.5% PLB (p=0.21)), the “pts with ≥1 stage fibrosis reduction without NASH worsening” value was 29.5%. Further, the “OR for NASH resolution without fibrosis worsening vs PLB” value in data set [1] (600 mg QD, 95% CI: 0.99-22.66, p=0.051) was 4.74. The “Discontinuation due to adverse events (AE)” value in data set [1] (1-year treatment) is given as below 5%. The “serious AE, pts” value in data set [1] (1-year treatment, without a difference between arms) turned out to be 10%. Moreover, the “ALT vs PLB” value in data set [1] (both doses (400 mg and 600 mg QD), p<0.001, dose response) is “significantly reduced”. For the same compound, the “HbA1c vs PLB” value in data set [1] (both doses (400 mg and 600 mg QD), p<0.007, dose response) is on record as “significantly reduced”. For the same compound, the “AST vs PLB” value in data set [1] (both doses (400 mg and 600 mg QD), p=0.002, dose response) is “significantly reduced”. Also, in data set [1] (one year), the safety and tolerability result was “excellent safety and tolerability”.
